{
  "source": "patent US20230372542A1",
  "about": "“COMPOSITION AND METHODS FOR MODULATING TCF4 GENE EXPESSION AND TREATING PITT HOPKINS SYNDROME” (The Regents of the University of California, priority 2020, published 2023)",
  "assay_type_in_all_cases": "cell-based, human",
  "key": {"[1]": {"test_system": "Wnt/β-catenin signaling pathway", "assay": "TOP-Flash luciferase reporter Wnt functional assay in NPCs", "settings": "PTHS NPCs; CHIR99021 (FIG. 16D)", "source_text": "TOP-Flash luciferase reporter Wnt functional assay. For assessing levels of Wnt signaling, 70% confluent cultures of NPCs in 24-well plates (with Neural Progenitor Medium from StemCell Technologies) were transfected with the M50 Super 8×TOPFlash plasmid (Addgene #12456; [http:/]/n2t.net/addgene:12456; RRID:Addgene_12456; referred to as TOP-Flash luciferase reporter plasmid), which is used to assess β-catenin-mediated transcriptional activation. This plasmid contains a minimal TA viral promoter driving the expression of a firefly luciferase gene preceded by seven binding sites ([…]; SEQ ID NO:1) for TCF/LEF (Veeman et al., 2003), not to be confused with TCF4. Control NPCs were transfected with M51 Super8×TOPflash plasmids, which have mutant TCF/LEF binding sites (Addgene plasmid #12457; [http:/]/n2t.net/addgene:12457; RRID:Addgene_12457).\nTransfection was performed using the Amaxa Nucleofaction Mouse Neural Stem Cell Nucleofector kit for NPCs (Lonza), using the manufacturer's recommendations. After 24 h, medium was replenished and the luciferase assay was performed using the Pierce Firefly Luciferase Flash Assay Kit (Thermo Fisher Scientific) on a sample of 50,000 cells, using a Synergy microplate reader (BioTek Instruments). […] Activity levels were expressed as arbitrary units normalized against the mean activity in the respective controls. […]"}, "CtOs or sPOs": {"test_system": "CtOs or sPOs", "assay": "Wnt signaling manipulation in brain organoids (size, immunostaining, single cell RNA-Seq)", "experimental": "Immunofluorescence staining. After being cultured in vitro for the required amount of time, CtOs and sPOs were fixed with 4% paraformaldehyde for 4-8 h at 4° C. and cryoprotected in 30% sucrose for 12 h. Organoids were then embedded in TissueTek (Leica Microsystems) and sectioned on a Leica VT1000S cryostat to produce 20 μm sections. For staining, slides were air dried for 10 min, permeabilized in […] for 2 min, and blocked with […] for 1 h at 25° C., followed by incubation with primary antibodies in the same solutions, for 16 h at 4° C. […] After further washes in 1×PBS, slides were counterstained with DAPI solution (1 μg/mL) for 45 min and mounted with ProLong Gold. All images were taken using a Zeiss fluorescence microscope equipped with Apotome (Axio Observer Apotome, Zeiss). For projections of z series stacked images of DCX-stained organoids, the maximum intensity feature of ZEN software (Zeiss) was used, after collecting 10 optical slices per section. For p16^INK4a staining, antigen retrieval was performed by incubating the slides at 60° C. for 10 min in 1× Universal HIER antigen retrieval reagent (Abcam; ab208572), followed by regular immunostaining. For counting SOX2+ cells after p16^INK4a co-staining (FIG. 15J), raw unprocessed images were used, and defined strongly stained cells as those which had average pixel intensity between the upper third quartile and the maximum pixel intensity in each image. Remaining SOX2+ cells were considered weakly stained.\nFor quantification of cell types in organoid sections, 4 random 100×100 μm regions of interest (ROI) were sampled across each imaged section. The mean number of labeled cells per sample was calculated by first averaging the number of labeled cells in each ROI to produce a mean value of labeled cells per section, and then averaging these mean values across all sections for each subject. […] The average percentage of pixels according to these rules was computed over four 100×100 μm ROIs per section and 6 sections per subject.\nOrganoid single cell RNA sequencing analysis. CtOs and sPOs were dissociated to produce a single cell suspension via a combination of mechanical dissociation with forceps and enzymatic digestion with Accutase for 10 min. For each library, a total of 15 organoids were dissociated and the resulting cells were pooled and subsequently filtered to isolate single cells for RNA sequencing analysis on the same day. Dissociated cells were pelleted (3 min, 100× g, 4° C.) and resuspended in 10 mL of Neurobasal medium. […] Single cell RNA-seq libraries were prepared using the Chromium Single Cell 3′ v3 Library kit (10× Genomics) according to the manufacturer's protocol. Approximately 20,000 cells were loaded per sample on the Chromium chip. All steps, including GEM (Gel beads in emulsion) preparation, reverse transcription, PCR amplification, and Illumina library construction were carried out on a T100 thermal cycler (Bio-Rad). cDNA extracted from GEMs was cleaned up using MyOne Silane Beads (Thermo Fisher Scientific), PCR-amplified for a total of 10 cycles, and then purified using SPRIselect Reagent Kit (B23317, Beckman Coulter). Next, the cDNA pool was enzymatically fragmented for each library and a double size selection was performed using the SPRIselect Reagent Kit. Finally, Illumina adapters were ligated to prepare libraries for sequencing, followed by another round of double size selection with the SPRIselect Reagent Kit. […] Illumina libraries were quantified using Qubit dsDNA HS Assay Kit (Thermo Fisher Scientific) and size quality control was performed on a High Sensitivity D1000 tapestation (Agilent)."}, "NPCs": {"test_system": "NPCs", "assay": "p16INK4a+ (senescent) cells in NPCs treated with CHIR99021", "settings": "PTHS NPCs", "experimental": "For immunofluorescence labeling of NPCs, these cells were seeded at a density of 50,000 cells per well of a LabTek II 8-well chambered slide. When cells reached 50% confluency, they were fixed and processed for immunostaining in the same manner as described for iPSC colonies, with the following primary antibodies: rabbit anti-TCF4 (Abcam; ab217668; 1:1000); and chicken anti-vimentin (VIM) (Abcam; ab22651; 1:2000). NPCs were also stained to detect senescence associated P-galactosidase (SA-P-gal), using the CellEvent™ Senescence Green Detection Kit (Thermo Fisher Scientific; C10850) after antigen retrieval as described above. The same method described above for counting weakly and strongly stained SOX2+ cells after p16^INK4a co-staining was applied to NPCs.\nWnt signaling manipulation. For manipulating the Wnt/β-catenin signaling pathway in NPCs, 200,000 cells were seeded on a 6-well plate, followed by treatment with specific agonist CHIR99021 (1 μM) for 4 days. Controls were treated with DMSO (CHIR diluent) at the same concentration and for the same duration. […] In all cases, treated cells were assayed to measure activity of the Wnt pathway via transfection with the TOP-Flash plasmids described herein. For all experiments, 3 biological replicates were used per subject line, and similar results were obtained in at least 3 independent experiments."}},
  "data": [
    {"smiles": "Cc1c[nH]c(-c2cnc(NCCNc3ccc(C#N)cn3)nc2-c2ccc(Cl)cc2Cl)n1", "note": "[CHIR99021]", "values": [
      {"measurement": "Wnt signaling activity (TOP-Flash)", "setting": "[1]", "value": "increased"},
      {"measurement": "percentage of subpallial-type neural progenitors", "setting": "CtOs or sPOs; CHIR99021-treated CtOs (FIG. 16H)", "value": "increased percentage"},
      {"measurement": "progenitor population (single cell RNA-Seq)", "setting": "CtOs or sPOs; CHIR99021-treated PTHS CtOs and sPOs (FIGS. 16G-H)", "value": "increase in the progenitor population"},
      {"measurement": "neural rosettes", "setting": "CtOs or sPOs; PTHS CtOs, CHIR99021", "value": "reappearance of conspicuous neural rosettes"},
      {"measurement": "NPC content (SOX2+ cells)", "setting": "CtOs or sPOs; PTHS CtOs, CHIR99021 1 μM (FIG. 9K)", "value": "significant increase"},
      {"measurement": "organoid size", "setting": "CtOs or sPOs; PTHS CtOs, CHIR99021 1 μM (FIG. 16F)", "value": "significant increase in organoid size"},
      {"measurement": "TCF4 levels in neural progenitors of the organoid's 3D structure", "setting": "CtOs or sPOs; PTHS sPOs, CHIR (FIG. 16J)", "value": "do not exhibit an increase in TCF4 levels"},
      {"measurement": "expression of subpallial markers (GAD1, GAD2)", "setting": "CtOs or sPOs; parent and PTHS CHIR99021-treated organoids (FIG. 16I)", "value": "higher"},
      {"measurement": "progenitor content", "setting": "CtOs or sPOs; parent organoids, CHIR (FIG. 9K)", "value": "does not lead to an increase"},
      {"measurement": "organoid size", "setting": "CtOs or sPOs; parent organoids, CHIR (FIG. 16F)", "value": "does not lead to an increase"},
      {"measurement": "percentage of p16INK4a senescent cells", "setting": "NPCs", "value": "decreased the percentage"}
    ]}
  ]
}
